# According to patent US11034673B2, “(S)-N-(3-(6-isopropoxypyridin-3-yl)-1H-indazol-5-yl)-1-(2-(4-(4-(1-methyl-1H-1,2,4-triazol-3-yl)phenyl)-3,6-dihydropyridin-1(2H)-yl)-2-oxoethyl)-3-(methylthio)pyrrolidine-3-carboxamide compositions for pharmaceutical preparations” (Merck Sharp & Dohme Corp., priority 2014, dated 2021):
# Assay: solubility of crystalline form
# Assay type: physicochemical
smiles,measurement,value
"CS[C@@]1(C(=O)Nc2ccc3[nH]nc(-c4ccc(OC(C)C)nc4)c3c2)CCN(CC(=O)N2CC=C(c3ccc(-c4ncn(C)n4)cc3)CC2)C1 [crystalline hydrate Form 2, (S)—N-(3-(6-isopropoxypyridin-3-yl)-1H-indazol-5-yl)-1-(2-(4-(4-(1-methyl-1H-1,2,4-triazol-3-yl)phenyl)-3,6-dihydropyridin-1(2H)-yl)-2-oxoethyl)-3-(methylthio)pyrrolidine-3-carboxamide]",solubility,poor solubility
